Patent US11827690B2, “ApoC-II mimetic peptides” (THE UNITED STATES OF AMERICA, as represented by the …, priority 2017, dated 2023)

Legend:
[1] = system: chylomicrons isolated from human plasma; test: ApoC-III displacement study in chylomicrons isolated from human plasma; format: binding
Procedure: VLDL or chylomicrons isolated from human plasma were incubated with an apoC-II mimetic peptide for 1 hour at 37° C. and washed 3 times with PBS using spin filter with 100 kDa cutoff membrane. Supernatants were brought to the original volume with PBS and loaded to 4-12% Bis-TRIS SDS PAGE gel. ApoC-I, apoC-II, apoC-III, and apoE bands were identified by their corresponding size.

[2] = biological target: T1, LPL inhibited by apoC-III (Bos taurus, UniProt P11151); test: LPL activation assay with Intralipid as substrate and recombinant apoC-III as an inhibitor; format: biochemical; conditions: Intralipid substrate, FIG. 31
T1 sequence (P11151 29-478): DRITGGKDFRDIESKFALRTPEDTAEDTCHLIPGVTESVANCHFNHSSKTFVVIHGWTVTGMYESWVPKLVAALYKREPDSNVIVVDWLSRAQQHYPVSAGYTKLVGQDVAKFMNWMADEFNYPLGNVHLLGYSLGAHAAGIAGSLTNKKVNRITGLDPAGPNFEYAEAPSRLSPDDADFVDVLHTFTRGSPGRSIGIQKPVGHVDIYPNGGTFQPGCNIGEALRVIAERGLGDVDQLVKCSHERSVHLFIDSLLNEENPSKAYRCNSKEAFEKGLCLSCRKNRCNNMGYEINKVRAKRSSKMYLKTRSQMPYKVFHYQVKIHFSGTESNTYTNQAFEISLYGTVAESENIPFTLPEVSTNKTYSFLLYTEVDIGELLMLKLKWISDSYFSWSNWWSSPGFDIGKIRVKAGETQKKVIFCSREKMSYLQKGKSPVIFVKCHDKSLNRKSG
Procedure: (§1) LPL activity assay: 10 μL of Intralipid, human plasma sample, or mouse plasma sample was added in each well using repeater pipette. 10 μL (or 15 μL in the wells with no LPL control) of PBS and 10 μL of 1% BSA was added in each well using repeater pipette. 10 μL of peptides were added to corresponding wells in vertical triplicates (lowest concentration is on a left, highest is on the right). The plate was spun down at 1000 RPM for 10 seconds to mix and to remove the solutions from the wall of each well. The plate was put on ice and 5 μL of LPL was added using repeater pipette. The plate was spun down again at 1000 RPM for 10 seconds. The plate was covered and put back on ice for an incubation of 30 min. The plate was then moved to 37° C. and incubated for 1 hour.
(§2) Free fatty acids (NEFA) assay: 45 μL of 5 nmoL standard and 0 nmoL control (0.2% BSA) were added to corresponding wells. 225 μL of reagent A was added in each well using the reagent tray and 12-channel pipette. The plate was incubated for 10 min before 75 μL of reagent B was added to each well using the reagent tray and 12-channel pipette. The plate was not covered due to the high volume. The absorbance at 550 nm and 660 nm was measured.
LPL assay was performed using Intralipid, high TG human plasma (1:50 dilution), or apoC-III transgenic mouse plasma (1:50 dilution). When Intralipid was used as a substrate, 25 or 50 μM recombinant ApoC-III was added as an inhibitor. When the high TG human plasma was used as a substrate, 25 or 50 μM recombinant ApoC-III was added as an inhibitor with or without pre-incubation at 37° C. for 1 hour. An apoC-II mimetic peptide was added at various concentrations.

bovine LPL = biological target: T2, bovine LPL (Bos taurus, UniProt P11151); test: in vitro LPL assay using hypertriglyceridemia patient sera as substrate; format: biochemical; conditions: patient sera TG about 1000 mg/dL to about 1700 mg/dL, FIGS. 15A-D
T2 sequence (P11151 29-478): T1 sequence (P11151 29-478)
Procedure: Preparation of LPL: frozen stock of 10 μL of 0.5 mg/mL bovine LPL was used and diluted 1:100 (10 μL+990 μL of PBS).
Preparation of free fatty acid (NEFA) assay: NEFA reagents were purchased from Wako Diagnostics, Wako Life Sciences, Inc. Reagent A was prepared by mixing Coloring Reagent A with Solvent A (225 μL per well). Reagent B was prepared by mixing Coloring Reagent B with Solvent B (75 μL per well). 5 nmoL oleic acid standard was prepared by diluting 20 μL of 1 mM oleic acid stock (WAKO NEFA standard solution) with 180 μL of 0.2% BSA.
as §1, §2

[3] = system: obese monkeys with a plasma TG level of greater than 2 mmol/L; test: in vivo studies in the obese monkey model
Procedure: Monkeys with a TG level greater than 2 mmol/L were selected, trained and assigned into 3 groups (control, 1 mg/kg Delta6PV, and 5 mg/kg Delta6PV). The desired dose was injected intravenously into the animals at 0 h time point. The monkeys were monitored over the course of 72 hours and blood samples at different time points were collected for biomarker analysis.

Sequence | affinity for chylomicrons compared with the apolipoproteins [1] | effect on inhibition of LPL by apoC-III [2] | effect on inhibition of LPL by apoC-III ([2]; listed as ApoC-II-a) | LPL activation (bovine LPL) | dose dependence of effect ([3]; 1 and 5 mg/kg intravenous) | VLDL level ([3]; FIG. 48A) | LDL level ([3]; FIG. 48B) | HDL level ([3]; FIG. 48C) | plasma TG level ([3]; single intravenous injection, 1 and 5 mg/kg, 24 h, 48 h, and 72 h after the injection)
DWLKAFYDKVAEKLKEAFPAMSTYTGIFTDQVLSVLKGEE (listed as Homo sapiens) [apoC-II-a, excluded from the claimed peptides] | higher affinity for chylomicrons than the apolipoproteins | overcame the inhibitory effect of apoC-III and facilitated lipolysis in a dose-dependent manner | overcomes the inhibition by apoC-III |  |  |  |  |  | 
DYLKEVFEKLRDLYEKFTPAVSTYTGIFTDQVLSVLKGEE [Delta6PV] |  |  |  | activated LPL in vitro | dose-dependent | marked reduction of the VLDL level | did not change significantly | did not change significantly | significant reduction of plasma TG level
